From US20120028921A1, “METHODS AND COMPOSITIONS USING OXIDIZED PHOSPHOLIPIDS” (The Johns Hopkins University, priority 2004, published 2012)
“Also recorded” adds a separate entry of the source.

Key:
Erk-1,2 = Erk-1,2 MAP kinase cascade activation, phospho-specific immunoblotting; type: cell-based, human; details: for effect on OxPAPC-induced Erk-1,2 cascade activation/phosphorylation: UO-126 5 μM, genistein 100 μM, PKC peptide inhibitor 20 μM, BHT preincubated with OxPAPC
Experimental: (§1) Western immunoblotting. Protein extracts were separated by SDS-PAGE, transferred to polyvinylidene difluoride (PVDF) membranes (30 V for 18 h or 90 V for 2 h), and the membranes were incubated with specific antibodies of interest. Equal protein loadings were verified by reprobing membranes with anti-Erk, anti-Fax, or anti-paxillin antibodies. Immunoreactive proteins were detected with the enhanced chemiluminescent detection system (ECL) according to the manufacturer's directions (New England BioLabs, Beverly, Mass.). The relative intensities of the protein bands were quantified by scanning densitometry using Image Quant 5.2 (Molecular Dynamics, Piscataway, N.J.) software.
(§2) Activation of MAP kinase pathways and characterization of tyrosine phosphorylation. Activation of MAP kinase cascade was by monitored by western immunoblotting techniques using phosphospecific antibodies, which are described in Materials section and detect activated form of protein kinases of the MAP kinase cascade. Analysis of the total protein tyrosine phosphorylation was performed by immunoblotting with phosphotyrosine antibody.

PKC = PKC activation: phospho-PKC substrate immunoblot and in vitro kinase assay of lysates; type: cell-based, human
Experimental: (§3) Analysis of PKC and PKA activities. After stimulation with OxPAPC (20 μg/ml, 15 min), HPAEC were lysed, cell lysates were clarified by centrifugation (14000 g, 5 min, +4 C.°), and PKA and PKC activities were measured using in vitro kinase assay kits obtained from Promega Corp. (Madison, Wis.) according to manufacturer protocol. Additionally, OxPAPC-induced PKC and PKA activation in HPAEC cultures was determined by immunoblotting of whole cell lysates with phospho-PKC substrate- and phospho-PKA substrate-specific antibodies that recognize PKA- or PKC-phosphorylated sites in the EC endogenous proteins.

[1] = test system: human pulmonary endothelial cells (HPAEC); test: Transendothelial electrical resistance (TER), ECIS system; type: cell-based; details: for effect on transendothelial electrical resistance (TER): agent alone, phospholipids up to 20 μg/ml; for effect of synthetic fragmented phospholipids on TER: prepared by chemical synthesis; for effect of pretreatment on OxPAPC-induced TER increase: BHT 5 μM 10 min preincubated with OxPAPC, toxin B 100 ng/ml, Y27632 5 μM, 1 hr; for co-elution with TER-increasing activity in HPLC-MS of fraction 2: reversed phase HPLC fractions tested on TER
Experimental: Human pulmonary endothelial cells (HPAEC) were cultured and transfected with cDNAs as described previously (Birukov et al., 2002). Lipid oxidation and analysis of oxidation products by positive ion electrospray mass spectrometry (ESI-MS) was performed as described previously (Watson et al., 1997, Leitinger et al. 1999 and, Bochov et al. 2002). Measurements of transendothelial electrical resistance were performed using electrical cell substrate impedance-sensing (ECIS) system as described elsewhere (Garcia et al., 2001 and Birukova et al., 2004). Transient transfections and siRNA-based protein depletion of small GTPases were performed as described elsewhere (Birukov et al. 2002, Birukova et al., 2004 and Birukova et al., 2004a). Rac, Cdc42 and Rho activation assays were performed using assay kits from Upstate Biotechnology (Lake Placid, N.Y.) (Garcia et al., 2001 and Birukova et al., 2004). Subcellular protein fractionation, western blot analyses and densitometric analyses were performed from at least 3 experiments as described (Birukova et al., 2004). Immunofluorescent staining of HPAEC was performed as previously described (Birukov et al., 2002, Birukova et al., 2004). ANOVAs and a post hoc Student-Newman-Keuls test were used to compare the means of two or more different treatment groups. Results were expressed as the mean±SE. Differences between two groups were considered statistically significant with a value of P<0.05.

JNK = JNK MAP kinase phosphorylation, immunoblotting; type: cell-based, human
Experimental: as §1, §2

[2] = test system: protein tyrosine phosphorylation; test: Total protein tyrosine phosphorylation, phosphotyrosine immunoblot; type: cell-based, human; details: for effect on OxPAPC-induced protein tyrosine phosphorylation: genistein 100 μM, BHT preincubated with OxPAPC
Experimental: as §1, §2

[3] = test system: human pulmonary endothelial cells (HPAEC); details: literature (Goggel et al. 2004); cited from earlier work
p38 = p38 MAP kinase phosphorylation, immunoblotting; type: cell-based, human; details: 20 μg/ml
Experimental: as §1, §2

PKA = PKA activation: phospho-PKA substrate immunoblot and in vitro kinase assay of lysates; type: cell-based, human; details: phospho-PKA substrate immunoblot
Experimental: as §3

FAK = FAK Tyr576 phosphorylation, immunoblot; type: cell-based, human; details: PP-2 5 μM pretreatment
Experimental: as §1

paxillin = test: Paxillin Tyr118 phosphorylation, immunoblot; type: cell-based, human; details: PP-2 5 μM pretreatment
Experimental: as §1

[4] = HPAEC monolayers, thrombin 50 nM

N#CC(=C(/N)Sc1ccccc1N)/C(C#N)=C(/N)Sc1ccccc1N [UO-126]
effect on OxPAPC-induced Erk-1,2 cascade activation/phosphorylation (Erk-1,2): completely abolished

CN(C)CCCn1cc(C2=C(c3c[nH]c4ccccc34)C(=O)NC2=O)c2ccccc21 [bisindolmaleimide I]
effect on OxPAPC-induced PKC activity (PKC; in vitro kinase assay, preincubation 1 hour): attenuated OxPAPC-induced PKC activation to a lesser extent

CCCCCCCCCCCCC/C=C/[C@@H](O)[C@@H](N)COP(=O)(O)O [S1P, sphingosine 1-phosphate]
concentration giving maximal barrier protective effect ([1]; HPAEC monolayers): 1 µM
effect on transendothelial electrical resistance (TER) [1, 4]: rapid concentration-dependent TER increase

CCCCCCCCCCCCCCCC(=O)OC[C@H](COP(=O)([O-])OCC[N+](C)(C)C)OC(=O)CCCC(=O)O [PGPC]
effect of synthetic fragmented phospholipids on TER [1]: significantly and concentration-dependently decreased TER

Cc1cc(C(C)(C)C)c(O)c(C(C)(C)C)c1 [BHT, butylated hydroxytoluene]
effect of pretreatment on OxPAPC-induced TER increase [1]: did not affect
effect on OxPAPC-induced Erk-1,2 cascade activation/phosphorylation (Erk-1,2): same levels of Erk-1,2 activation
effect of preincubation on OxPAPC-induced JNK activation (JNK; OxPAPC preincubated with BHT): same levels of JNK activation
effect on OxPAPC-induced protein tyrosine phosphorylation [2]: did not affect

C[C@@H](N)[C@H]1CC[C@H](C(=O)Nc2ccncc2)CC1 [Y27632]
effect of pretreatment on OxPAPC-induced TER increase [1]: not

CCCCC/C=C\CC1C=CC(=O)/C1=C/C1OC1CCCC(=O)O[C@H](COC(=O)CCCCCCCCCCCCCCC)COP(=O)([O-])OCC[N+](C)(C)C (stereo partly drawn) [PECPC, 1-palmitoyl-2-(epoxycyclopentenone)-sn-glycero-3-phosphorylcholine]
co-elution with TER-increasing activity in HPLC-MS of fraction 2 [1]: co-eluted with the fraction exhibiting major barrier-protective activity; also recorded: co-eluted with TER increasing activity

CCCCC/C=C\CC1/C(=C\C2OC2CCCC(=O)O[C@H](COC(=O)CCCCCCCCCCCCCCC)COP(=O)([O-])OCC[N+](C)(C)C)C(=O)CC1O (stereo partly drawn) [PEIPC, 1-palmitoyl-2-(epoxyisoprostane E2)-sn-glycero-3-phosphocholine]
co-elution with TER-increasing activity in HPLC-MS of fraction 2 [1]: co-eluted with TER increasing activity

platelet activating factor [PAF]
barrier effect compared with OxPAPC [3]: does not mimic barrier-protective OxPAPC effects

CCCCC/C=C\C/C=C\C/C=C\C/C=C\CCCC(=O)O[C@H](COC(=O)CCCCCCCCCCCCCCC)COP(=O)([O-])OCC[N+](C)(C)C [PAPC, 1-palmitoyl-2-arachidomoyl-sn-glycero-3-phosphorylcholine]
effect on transendothelial electrical resistance (TER) [1, 4]: did not exhibit significant effects
Erk-1,2 activation (Erk-1,2; 20 μg/ml): had no effect
phosphorylation / activation of p38 (p38): without effect
phosphorylation / activation of JNK (JNK; 20 μg/ml): without effect
protein tyrosine phosphorylation ([2]; 20 μg/ml): without effect
PKC-mediated phosphorylation of endogenous substrates (PKC; phospho-PKC substrate immunoblot): did not significantly increase
PKA-mediated phosphorylation of endogenous substrates / PKA activation (PKA): did not induce PKA activation

O=c1c(-c2ccc(O)cc2)coc2cc(O)cc(O)c12 [genistein]
effect on OxPAPC-induced Erk-1,2 cascade activation/phosphorylation (Erk-1,2): attenuated
effect on OxPAPC-induced protein tyrosine phosphorylation [2]: abolished

lysoPC
effect of synthetic fragmented phospholipids on TER [1]: significantly and concentration-dependently decreased TER

thrombin
effect on transendothelial electrical resistance (TER) [1, 4]: abrupt decrease in TER
TER recovery time after maximal TER decline ([1]; thrombin 50 nM, with or without OxPAPC 20 μg/ml, five experiments): 115 min

CCCCC/C=C\C/C=C\CCCCCCCC(=O)OC(COC(=O)CCCCCCCCCCCCCCC)COP(=O)([O-])OCC[N+](C)(C)C (stereo not drawn) [PLPC, palmitoyl-linoleate phosphatidyl choline]
effect on transendothelial electrical resistance (TER) [1, 4]: did not exhibit significant effects

CCCCCCCCCCCCCC(=O)OC[C@H](COP(=O)([O-])OCC[N+](C)(C)C)OC(=O)CCCCCCCCCCCCC [DMPC, dimyristoyl phosphatidyl choline]
effect on transendothelial electrical resistance (TER) [1, 4]: did not exhibit significant effects

CC(C)(C)n1nc(-c2ccc(Cl)cc2)c2c(N)ncnc21 [PP-2]
effect on OxPAPC-induced FAK phosphorylation (FAK): attenuated
effect on OxPAPC-induced paxillin phosphorylation (paxillin): attenuated

CCCCCCCCCCCCCCCC(=O)OC[C@H](COP(=O)([O-])OCC[N+](C)(C)C)OC(=O)CCCC=O [POVPC]
effect of synthetic fragmented phospholipids on TER [1]: significantly and concentration-dependently decreased TER
